# Data as given in patent US6858638B2, “Substituted indazoles, compositions containing them, method of production and use” (Aventis Pharma S.A., priority 2002, dated 2005).
# Counter-ions that a name gives are not always drawn.
# Experiments:
# human KDR enzyme = target: T1, human KDR enzyme (Homo sapiens, UniProt P35968); test: KDR substrate (PLCγ) phosphorylation, scintillation assay; type: biochemical; settings: 10 μM; read-out: KDR % inhib at 10 μM
# T1 construct: The cytoplasmic domain of the human KDR enzyme; GST; made in house; host or cells: SF21 insect cells (baculovirus)
# T1 sequence (P35968 786-1356 limits assumed): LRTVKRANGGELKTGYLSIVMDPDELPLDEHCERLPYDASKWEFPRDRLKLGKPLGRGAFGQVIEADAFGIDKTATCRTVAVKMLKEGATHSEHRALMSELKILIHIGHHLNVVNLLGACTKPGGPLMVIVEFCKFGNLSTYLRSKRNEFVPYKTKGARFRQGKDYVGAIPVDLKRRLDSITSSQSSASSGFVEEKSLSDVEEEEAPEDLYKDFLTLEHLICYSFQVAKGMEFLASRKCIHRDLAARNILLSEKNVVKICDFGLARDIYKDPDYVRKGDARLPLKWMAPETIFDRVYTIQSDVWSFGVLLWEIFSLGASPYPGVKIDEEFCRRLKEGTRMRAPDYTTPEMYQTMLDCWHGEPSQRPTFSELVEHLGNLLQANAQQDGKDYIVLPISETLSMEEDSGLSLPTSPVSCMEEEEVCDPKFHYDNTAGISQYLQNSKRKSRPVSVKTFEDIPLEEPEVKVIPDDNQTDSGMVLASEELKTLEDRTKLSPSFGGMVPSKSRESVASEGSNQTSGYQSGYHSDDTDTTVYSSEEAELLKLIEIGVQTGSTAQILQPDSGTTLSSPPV
# Method in brief: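 GST-fused human KDR cytoplasmic domain from SF21 cells (about 60% pure, 100 ng) phosphorylated 2 μg of GST-PLCγ SH2-SH3 fragment. The trigger solution held γ33P-ATP with 2 μM cold ATP, in MOPS buffer pH 7.2 with Mg2+, Mn2+, vanadate and NaF. Reactions ran 1 h at 37 °C, were stopped with EDTA and counted by scintillation; results are % inhibition versus the no-compound control.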
# human FAK = target: T2, human FAK (Homo sapiens, UniProt Q05397); test: FAK autophosphorylation inhibition, time resolved fluorescence (HTRF) assay; type: biochemical; settings: for inhibition at 30 µM: 30 μM (values marked *), read-out: FAK % inhib at 30* μM; for inhibition at 10 µM: 10 μM (values without asterisk), read-out: FAK % inhib at 10 μM
# T2 construct: The complete cDNA of human FAK; made in house; host or cells: baculovirus expression system (vector pFastBac HTc)
# T2 sequence (Q05397 whole entry): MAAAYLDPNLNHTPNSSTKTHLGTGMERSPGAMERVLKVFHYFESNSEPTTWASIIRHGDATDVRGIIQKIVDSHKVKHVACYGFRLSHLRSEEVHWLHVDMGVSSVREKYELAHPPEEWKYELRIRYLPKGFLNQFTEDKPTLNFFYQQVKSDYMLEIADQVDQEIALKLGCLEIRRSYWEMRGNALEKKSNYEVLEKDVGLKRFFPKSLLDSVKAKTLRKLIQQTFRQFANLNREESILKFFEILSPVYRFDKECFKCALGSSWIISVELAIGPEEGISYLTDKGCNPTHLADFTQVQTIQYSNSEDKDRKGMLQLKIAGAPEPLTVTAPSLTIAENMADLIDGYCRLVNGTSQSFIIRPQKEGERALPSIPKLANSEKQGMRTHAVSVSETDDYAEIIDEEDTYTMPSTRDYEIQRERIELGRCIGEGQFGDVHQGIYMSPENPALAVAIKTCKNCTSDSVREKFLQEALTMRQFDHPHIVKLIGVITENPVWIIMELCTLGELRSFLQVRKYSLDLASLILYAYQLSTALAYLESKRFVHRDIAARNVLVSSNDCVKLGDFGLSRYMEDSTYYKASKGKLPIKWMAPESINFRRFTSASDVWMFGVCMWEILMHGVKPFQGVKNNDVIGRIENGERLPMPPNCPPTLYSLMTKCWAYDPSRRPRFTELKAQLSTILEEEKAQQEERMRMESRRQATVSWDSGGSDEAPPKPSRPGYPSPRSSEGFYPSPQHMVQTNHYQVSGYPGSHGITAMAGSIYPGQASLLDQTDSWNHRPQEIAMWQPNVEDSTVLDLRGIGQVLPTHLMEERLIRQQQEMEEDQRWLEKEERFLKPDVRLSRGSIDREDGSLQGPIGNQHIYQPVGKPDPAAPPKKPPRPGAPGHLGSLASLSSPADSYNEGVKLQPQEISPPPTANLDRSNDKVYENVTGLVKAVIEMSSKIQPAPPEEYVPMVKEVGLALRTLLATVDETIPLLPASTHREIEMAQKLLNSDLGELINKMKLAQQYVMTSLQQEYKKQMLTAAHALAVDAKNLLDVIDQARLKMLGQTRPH
# Method in brief: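 His-tagged full-length human FAK from baculovirus (6.6 µg/ml) self-phosphorylates with 15 µM ATP in HEPES pH 7.2, MgCl2, vanadate, 1 h at 37 °C. HTRF detection (Eu-anti-phosphotyrosine / XL665-anti-His), 665/620 nm ratio; % inhibition vs untreated control, duplicate mean.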
# Aurora2 kinase = target: T3, Aurora2 kinase (Homo sapiens, UniProt O14965); test: Aurora2 kinase radioactivity scintillation assay using nickel chelate (NuMA substrate); type: biochemical; settings: 10 μM; read-out: Aurora2 % inhib at 10 μM
# T3 construct: A complete recombinant Aurora2 enzyme; His tag (N); made in house; host or cells: E. coli
# T3 sequence (O14965 1-403): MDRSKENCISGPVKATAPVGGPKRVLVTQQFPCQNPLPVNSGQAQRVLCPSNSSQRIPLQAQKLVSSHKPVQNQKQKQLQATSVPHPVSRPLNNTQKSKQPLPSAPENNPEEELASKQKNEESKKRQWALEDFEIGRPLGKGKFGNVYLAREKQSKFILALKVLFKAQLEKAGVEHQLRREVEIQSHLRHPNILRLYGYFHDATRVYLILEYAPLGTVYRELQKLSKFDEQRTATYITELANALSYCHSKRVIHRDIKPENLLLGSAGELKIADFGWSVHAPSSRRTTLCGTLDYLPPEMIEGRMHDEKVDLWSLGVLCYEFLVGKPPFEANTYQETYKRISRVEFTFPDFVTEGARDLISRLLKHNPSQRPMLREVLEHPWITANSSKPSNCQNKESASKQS
# Method in brief: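 His-tagged full-length Aurora2 (0.02 μM, E. coli) phosphorylating His-tagged NuMA C-terminal fragment (0.5 μM) with 1 μM ATP plus [33P]-ATP, 30 min at 37 °C, pH 7.5 Tris buffer with MgCl2. Nickel-chelate scintillation read; percent inhibition versus no-compound control.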
# [1] = target: T4, human IGF1R cytoplasmic domain (Homo sapiens, UniProt P08069); test: IGF1R autophosphorylation inhibition, time resolved fluorescence (HTRF) assay; type: biochemical; settings: 10 μM; read-out: IGF1R % inhib at 10 μM
# T4 construct: The human IGF1R cytoplasmic domain was cloned; made in house; host or cells: SF21 insect cells (baculovirus)
# T4 sequence (P08069 960-1367 limits assumed): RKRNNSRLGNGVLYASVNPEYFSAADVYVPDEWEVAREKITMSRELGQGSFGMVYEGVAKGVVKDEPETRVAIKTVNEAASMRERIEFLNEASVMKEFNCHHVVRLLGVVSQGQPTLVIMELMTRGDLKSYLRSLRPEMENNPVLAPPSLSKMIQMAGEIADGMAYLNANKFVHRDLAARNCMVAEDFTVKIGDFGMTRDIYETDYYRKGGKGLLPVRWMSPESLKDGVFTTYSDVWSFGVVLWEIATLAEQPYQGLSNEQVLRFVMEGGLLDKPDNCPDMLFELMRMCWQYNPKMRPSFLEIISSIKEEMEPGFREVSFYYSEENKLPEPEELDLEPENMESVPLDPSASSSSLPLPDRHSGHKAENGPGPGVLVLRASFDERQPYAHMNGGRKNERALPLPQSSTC
# Method in brief: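 GST-tagged human IGF1R cytoplasmic domain from SF21 cells incubated with compound in 50 mM Hepes pH 7.5, 5 mM MnCl2, 50 mM NaCl, […] ATP. Autophosphorylation detected by HTRF (Eu-K anti-phosphotyrosine, XL665 anti-GST) after EDTA/KF stop; percentage inhibition versus no-compound control.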
Structure (SMILES),melting point [°C],inhibition at 10 µM (human KDR enzyme) [%],inhibition at 30 µM (human FAK) [%],inhibition at 10 µM (human FAK) [%],inhibition at 10 µM (Aurora2 kinase) [%],inhibition at 10 µM [1] [%]
"O=S(=O)(Oc1ccc2[nH]ncc2c1)c1cccc(F)c1 (as salt: benzenesulfonate) [Example 17, 1H-Indazol-5-yl 3-fluorobenzenesulfonate]",104,–,–,–,–,–
"CS(=O)(=O)c1ccccc1S(=O)(=O)Nc1ccc2[nH]nc(C#N)c2c1 (hydrate or solvate) [Example 5, N-(3-Cyano-1H-indazol-5-yl)-2-methylsulfonylbenzenesulfonamide]",272,–,–,–,–,–
"CS(=O)(=O)Nc1n[nH]c2ccc(NS(=O)(=O)c3cccc(F)c3)cc12 (hydrate or solvate) [Example 27, 3-Fluoro-N-(3-methylsulfonylamino-1H-indazol-5-yl)benzenesulfonamide]",230,–,–,–,–,–
"CC(=O)Nc1n[nH]c2ccc(NS(=O)(=O)c3cccc(F)c3)cc12 (hydrate or solvate) [Example 28, N-[5-(3-Fluorobenzenesulfonylamino)-1H-indazol-3-yl)acetamide]",246,–,–,–,–,–
"O=C(Nc1n[nH]c2ccc(NS(=O)(=O)c3cc(F)cc(F)c3)cc12)c1ccccc1 (hydrate or solvate) [Example 46, N-[5-(3,5-Difluorobenzenesulfonylamino)-1H-indazol-3-yl]benzamide]",246,–,–,–,–,–
"CC(=O)Nc1ccccc1-c1n[nH]c2ccc(NS(=O)(=O)c3cccc(F)c3)cc12 (hydrate or solvate) [Example 47, N-{2-[5-(3-Fluorobenzenesulfonylamino)-1H-indazol-3-yl]phenyl}acetamide]",135,–,–,–,–,–
"CS(=O)(=O)c1ccccc1S(=O)(=O)Nc1ccc2[nH]nc(-c3ccc(C(=O)O)cc3)c2c1 (hydrate or solvate) [Example 69, 4-[5-(2-Methylsulfonylbenzenesulfonamino)-1H-indazol-3-yl]benzoic acid]",199,–,–,–,–,–
"N#Cc1n[nH]c2ccc(NS(=O)(=O)c3cccc(F)c3)cc12 [Example 4, N-(3-Cyano-1H-indazol-5-yl)-3-fluorobenzenesulfonamide]",227,24,85,–,–,–
"O=S(=O)(Nc1ccc2[nH]ncc2c1)c1ccc(Cl)c(Cl)c1 [Example 14, 3,4-Dichloro-N-(1H-indazol-5-yl)benzenesulfonamide]",209,–,–,42,–,–
"CS(=O)(=O)c1ccccc1S(=O)(=O)Nc1ccc2[nH]nc(C(=O)Nc3ccccc3)c2c1 [Example 18, N-Phenyl-5-(2-methylsulfonylbenzenesulfonylamino)-1H-indazole-3-carboxamide]",258,18,–,89,97,–
"O=C(Nc1n[nH]c2ccc(NS(=O)(=O)c3cccc(F)c3)cc12)c1ccccc1 [Example 23, N-[5-(3-Fluorobenzenesulfonylamino)-1H-indazol-3-yl]benzamide]",225,–,–,93,99,–
"O=S(=O)(Nc1ccc2[nH]ncc2c1)c1ccccc1 [Example 24, N-(1H-Indazol-5-yl)benzenesulfonamide]",179,10,–,76,60,–
"Cc1n[nH]c2ccc(NS(=O)(=O)c3ccc(Cl)c(Cl)c3)cc12 [Example 25, 3,4-Dichloro-N-(3-methyl-1H-indazol-5-yl)benzenesulfonamide]",184,11,38,–,50,–
"COc1ccc(-c2n[nH]c3ccc(NS(=O)(=O)c4ccccc4)cc23)cc1 [Example 31, N-[3-(4-Methoxyphenyl)-1H-indazol-5-yl]benzenesulfonamide]",172,98,–,75,90,–
"CC(=O)Nc1ccccc1-c1n[nH]c2ccc(NS(=O)(=O)c3ccccc3S(C)(=O)=O)cc12 [Example 48, N-{2-[5-(2-Methylsulfonylbenzenesulfonylamino)-1H-indazol-3-yl]phenyl}acetamide]",245,9,–,5,42,–
"CS(=O)(=O)c1ccccc1S(=O)(=O)Nc1ccc2[nH]nc(-c3ccsc3)c2c1 [Example 51, 2-Methylsulfonyl-N-(3-thiophen-3-yl-1H-indazol-5-yl)benzenesulfonamide]",249,55,–,90,88,–
"COC(=O)c1ccc(-c2n[nH]c3ccc(NS(=O)(=O)c4ccccc4S(C)(=O)=O)cc23)cc1 [Example 68, Methyl 4-[5-(2-methylsulfonylbenzenesulfonamino)-1H-indazol-3-yl]benzoate]",244,85,–,91,95,–
"CS(=O)(=O)c1ccccc1S(=O)(=O)Nc1ccc2[nH]nc(CCc3ccc(F)cc3)c2c1 [Example 75, N-{3-[2-(4-Fluorophenyl)ethyl]-1H-indazol-5-yl}-2-methylsulfonylbenzenesulfonamide]",234,35,–,82,87,–
"CS(=O)(=O)c1ccccc1S(=O)(=O)Nc1ccc2[nH]nc(CCc3ccc(Cl)cc3)c2c1 [Example 77, N-{3-[2-(4-Chlorophenyl)ethyl]-1H-indazol-5-yl}-2-methylsulfonylbenzenesulfonamide]",215,36,–,73,93,–
"CS(=O)(=O)c1ccccc1S(=O)(=O)Nc1ccc2[nH]nc(/C=C/C(=O)O)c2c1.Cl [Example 80, (E)-3-[5(2-Methylsulfonylbenzenesulfonylamino)-1H-indazol-3-yl]-acrylic acid]",170,32,–,66,89,–
"CS(=O)(=O)c1ccccc1S(=O)(=O)Nc1ccc2[nH]nc(-c3cccc(F)c3F)c2c1 [Example 221, N-[3-(2,3-Difluorophenyl)-1H-indazol-5-yl]-2-methanesulfonyl-benzenesulfonamide]",–,60,–,94,84,50
"Cc1cc(-c2n[nH]c3ccc(NS(=O)(=O)c4ccccc4S(C)(=O)=O)cc23)ccc1F [Example 222, N-[3-(4-Fluoro-3-methyl-phenyl)-1H-indazol-5-yl]-2-methanesulfonyl-benzenesulfonamide]",–,49,–,94,92,66
"CS(=O)(=O)c1ccccc1S(=O)(=O)Nc1ccc2[nH]nc(-c3cccc(OCc4ccccc4)c3)c2c1 [Example 223, N-[3-(3-Benzyloxyphenyl)-1H-indazol-5-yl]-2-methanesulfonyl-benzenesulfonamide]",–,23,–,70,31,0
"Cc1ccc(-c2n[nH]c3ccc(NS(=O)(=O)c4ccccc4S(C)(=O)=O)cc23)cc1F [Example 224, N-[3-(3-Fluoro-4-methyl-phenyl)-1H-indazol-5-yl]-2-methanesulfonyl-benzenesulfonamide]",–,71,–,91,92,70
"CS(=O)(=O)c1ccccc1S(=O)(=O)Nc1ccc2[nH]nc(-c3cc(Cl)ccc3Cl)c2c1 [Example 225, N-[3-(2,5-Dichlorophenyl)-1H-indazol-5-yl]-2-methanesulfonyl-benzenesulfonamide]",–,12,–,51,49,27
